Measurements published in US10208003B2, “Synthesis of amine substituted 4,5,6,7-tetrahydrobenzothiazole compounds” (KNOPP BIOSCIENCES LLC, priority 2011, dated 2019).

With `CCCN[C@@H]1CCc2nc(N)sc2C1.Cl.Cl` [Form B, (R)-(+)-2-amino-4,5,6,7-tetrahydro-6-(n-propylamino)benzothiazole dihydrochloride] the “polymorphic form conversion under exposure to humidity and/or moisture” value was “converts to Form A”.
